Where two headings read alike, the source gives them in different places.
Columns and labels:
[1] = system: histone-induced platelet aggregation; test: Histone-induced aggregation of isolated platelets; assay type: cell-based, human; settings: histones 150 μg/mL, isolated platelets, FIG. 4b
Experimental: In vitro platelet aggregation and degranulation assays. For aggregation studies platelets were isolated from human whole blood collected into Na-citrate vacutainers through 2-step centrifugation at room temperature (200×g for 20 min then the platelet-rich plasma 800×g for 15 min), the platelet pellet resuspended in Hank's balanced salt solution containing calcium and magnesium and histones added and incubated in the presence/absence of compounds at the concentrations of each as indicated. Samples were assessed for degree of platelet aggregation after 15 min exposure to histones by flow cytometry using the characteristic log FSC versus log SSC identification of platelets, with increases in the geometric mean of log FSC indicative of platelet aggregation.

histones = test: In-vivo histone toxicity assay; settings: mice; for Protection from histone-induced liver damage, generalised tissue injury and kidney failure (circulating ALT, LDH, creatinine): compound i.p. 10 min prior to i.v. histones 50 mg kg^−1, blood 4 h post-histones, concentration-dependent
Experimental: In-vivo histone toxicity assays. BALB/c female mice (5-6 weeks of age), that are more prone to histone-induced anemia and easier to inject i.v. at this young age than C57BL/6 mice, were injected i.p. with test compounds at concentrations indicated 10 min prior to i.v. injection of histones (50 mg kg^−1) in phosphate buffered saline. Retro-orbital bleeds were performed with glass Pasteur pipettes 10 min after histone injection and collected blood added to acid citrate dextrose (ACD), the 10 min blood sample being subjected to hematologic analyses for platelet and erythrocyte content using an ADVIA 2120i Hematology Analyzer. Spleens were also harvested at 10 min post-histone injection and splenic hemoglobin content quantified using a hemoglobin assay kit (Sigma-Aldrich). In the case of 4 h blood samples, male C57/BL/6 mice (6-8 weeks of age) were injected with test compounds and histones as above and plasma isolated and stored frozen for subsequent biochemical testing, with markers for liver (alanine aminotransferase, ALT), kidney (creatinine, Crea) and general tissue (lactate dehydrogenase, LDH) damage being determined by the Department of Pathology, The Canberra Hospital.

[2] = system: histone-mediated cytotoxicity for HMEC-1; test: Histone-mediated cytotoxicity assay (PI/Calcein-AM flow cytometry); assay type: cell-based
Experimental: Histone-mediated cytotoxicity assays. To determine the cytotoxicity of calf thymus histones (Sigma-Aldrich), various concentrations of histones (100-800 μg ml^−1) were added to suspensions of HMEC-1 or HUVEC (1×10^6 ml^−1) in 96 well plates and incubated for 1 h at 37° C. Cells were then incubated for 5 min at 37° C. with propidium iodide (PI; 2.5 μg ml^−1) (ThermoFisher Scientific), to detect dead cells, and Calcein-AM (0.04 μM) (ThermoFisher Scientific), to detect viable cells, placed on ice and the percentage of dead and viable cells determined by flow cytometry using gating strategies. In inhibition assays, HMEC-1 were incubated with histones (400 μg ml^−1) for 1 h at 37° C. in the presence of different concentrations of compounds (12.5-400 μg ml^−1) prior to the addition of PI and Calcein-AM. HMEC-1 cytotoxicity at each compound concentration was then determined based on the formula:
[formula] and the IC50 value for each polyanion then determined based on the line of best fit (nonlinear regression analysis) using Prism Software (Graphpad Software). In all assays MTS (IC50 30 μg ml^−1) was included as a standard to compensate for experimental variation, with data being adjusted in each assay to MTS having an IC50 of 30 μg ml^−1.

[3] = system: histone-mediated RBC aggregation; test: Histone-mediated erythrocyte aggregation (flow cytometry, scanning EM); assay type: cell-based, human
Experimental: (§1) Human erythrocytes (RBC) were incubated for 1 h at 37° C. alone (‘Saline’ control) or in the presence of histones (400 μg ml^−1) with or without mCBS (200 μg ml^−1). a, Percentage of RBC aggregation measured by flow cytometry based on forward (FSC) and side (SSC) scatter parameters and an appropriate gating strategy to discriminate aggregated from normal (non-aggregated) RBC. b, Scanning electron micrographs depicting level of RBC aggregation at low and high magnification following the three treatments depicted in (a). c, Concentration dependent inhibition of histone-mediated RBC aggregation by mCBS and MTS, in this case RBC aggregation being calculated by flow cytometry as fold increase in RBC auto-fluorescence relative to RBC in the absence of histones. The fold increase values also provide an estimate of the number of RBC in each aggregate. d, Retention of RBC in an artificial spleen that measures RBC deformability. RBC were incubated with increasing concentrations of histones for 1 h and, at the highest concentration used (400 μg ml^−1), also incubated with either mCBS or MTS (100 and 200 μg ml^−1), prior to passage through the artificial spleen. Data are mean±s.e.m. (n=3 biological replicates). ***P<0.001, ****P<0.0001 (one way ANOVA with Dunnett's multiple comparisons test).
In vitro erythrocyte microscopy, aggregation, fragility and deformability assays. […] J Biol Chem 289, 19531-19537 (2014)). Similarly, erythrocyte fragility induced by histones, in the presence or absence of inhibitors, was quantified using a sheer stress assay that we developed recently (Kordbacheh, F., O'Meara, C. H., Coupland, L. A., Lelliott, P. M. & Parish, C. R. Extracellular histones induce erythrocyte fragility and anemia. Blood 130, 2884-2888 (2017)). Finally, the reduced deformability of erythrocytes in the presence of histones and the effect of inhibitors on this process was assessed by measuring the passage of erythrocytes through an artificial human spleen (Kordbacheh, F., O'Meara, C. H., Coupland, L. A., Lelliott, P. M. & Parish, C. R. Extracellular histones induce erythrocyte fragility and anemia. Blood 130, 2884-2888 (2017); and Deplaine, G. et al. The sensing of poorly deformable red blood cells by the human spleen can be mimicked in vitro. Blood 117, e88-95 (2011)).

[4] = system: histone-induced erythrocyte rigidity; test: Erythrocyte deformability, passage through artificial spleen; assay type: cell-based, human; settings: histones 400 μg ml^−1, compounds 100 and 200 μg ml^−1, FIG. 3d
Experimental: as §1, with “RBC were incubated with increasing concentrations of histones for 1 h and, at the highest concentration used (400 μg ml^−1), also incubated with either mCBS or MTS (100 and 200 μg ml^−1), prior to passage through the artificial spleen. Data are mean±s.e.m. (n=3 biological replicates). ***P<0.001, ****P<0.0001 (one way ANOVA with Dunnett's multiple comparisons test).” left out
In vitro erythrocyte microscopy, aggregation, fragility and deformability assays. […] Similarly, erythrocyte fragility induced by histones, in the presence or absence of inhibitors, was quantified using a sheer stress assay that we developed recently (Kordbacheh, F., O'Meara, C. H., Coupland, L. A., Lelliott, P. M. & Parish, C. R. Extracellular histones induce erythrocyte fragility and anemia. Blood 130, 2884-2888 (2017)). […]

[5] = Rat ischemia reperfusion tissue (skin) flap model; assay type: in vivo; settings: rat skin flap IRI, 50 mg kg^−1 i.p., 72 h, FIG. 7d
Text: Rat ischemia reperfusion tissue flap model. The procedure employed is largely based on a previously described method (Bone, R. C. et al. Definitions for sepsis and organ failure and guidelines for the use of innovative therapies in sepsis. The ACCP/SCCM Consensus Conference Committee. American College of Chest Physicians/Society of Critical Care Medicine. Chest 101, 1644-1655 (1992)). Briefly, male Wistar rats were anaesthetized, locally depilated and a 3 cm by 6 cm fasciocutaneous flap was excised leaving the vascular pedicle intact. […] The clamp was removed 10 h post-application permitting returned blood flow to the flap. Test compounds (50 mg kg^−1) or saline were administered i.p. 5 min prior to clamp application and 5 min following its removal. The rats were monitored for a total experimental period of 72 h during which rats received additional compound or saline i.p. at 24 and 48 h post-op. The ‘Control No Clamp’ rats had the tissue flap excised and rubber placed underneath prior to re-suturing, however, the vessel was not clamped and they received saline at the same time points as the other rats. At the end of the experimental period the viability of the flaps was determined by the percentage of black necrotic or reddened areas versus pink viable areas. […]

[6] = system: anti-proliferative effect of histones on HMEC-1; test: HMEC-1 proliferation (3H-thymidine) after histone exposure; assay type: cell-based, human; settings: compounds 100 μg ml^−1, histones 400 μg ml^−1, FIG. 8b

For `OC[C@H]1O[C@@H](O[C@H]2[C@H](O)[C@@H](O)[C@H](O)O[C@@H]2CO)[C@H](O)[C@@H](O)[C@@H]1O` [CB], which “Inhibition of histone-induced platelet aggregation” value [1] is on record?
Its value is “non-inhibitory”.

And the “Protection from histone-induced liver damage, generalised tissue injury and kidney failure (circulating ALT, LDH, creatinine)” value (histones; FIG. 6a)?
Its value is “inactive”.

With `O=S(=O)(O)OC[C@H]1OC(OS(=O)(=O)O)[C@H](OS(=O)(=O)O)[C@@H](OS(=O)(=O)O)[C@@H]1OS(=O)(=O)O` (some centres unmarked) [glucose per-O-sulfate] as the compound, how does the “Inhibition of histone-mediated cytotoxicity for HMEC-1 (endothelial cells)” value [2] read?
The value was “little or no inhibitory activity”.

Which “Inhibition of histone-mediated cytotoxicity for HMEC-1 (endothelial cells)” value ([2]; compared with heparin, FIG. 2a) does the source give for `CO[C@@H]1O[C@H](COS(=O)(=O)O)[C@@H](OS(=O)(=O)O)[C@H](OS(=O)(=O)O)[C@H]1OS(=O)(=O)O` [methyl β-glucoside per-O-sulfate] here?
Its value is “little or no inhibitory activity”.

Which results are given for β-O-methyl cellobioside sulfate [mCBS]?
Inhibition of histone-mediated cytotoxicity for HMEC-1 (endothelial cells) ([2]; compared with heparin, FIG. 2a): as effective as heparin; Prevention of histone-mediated RBC aggregation (auto-fluorescence) ([3]; histones 400 μg ml^−1, FIG. 3c): prevented aggregation in a concentration dependent manner; Inhibition of histone-induced erythrocyte aggregation (FSC/SSC) ([3]; histones 400 μg ml^−1, mCBS 200 μg ml^−1, 1 h 37° C., FIG. 3a, confirmed by scanning EM): completely inhibited; Ability of erythrocytes to passage through an artificial spleen [4]: totally restored; Inhibition of histone-induced platelet aggregation [1]: completely inhibited; Histone-induced thrombocytopenia and anaemia (histones; 100 mg kg^−1 i.p., 10 min post-histones, FIG. 6b): prevented; Relative potency in protecting from histone-induced tissue pathologies (histones; FIG. 6a): equally active; Protection from histone-induced liver damage, generalised tissue injury and kidney failure (circulating ALT, LDH, creatinine) (histones; FIG. 6a): protected; Viable area of the skin flap [5]: consistently and significantly increased; Neutralization of anti-proliferative effect of histones on HMEC-1 monolayers [6]: completely neutralized

From patent US12239650B2, “Compounds for treating and preventing net associated complications” (The Australian National University, priority 2019, dated 2025)
